Laboratory results from paper PMC2944806, “HLA Class I Binding of HBZ Determines Outcome in HTLV-1 Infection” (PLoS Pathogens, 2010).

Assays:
[1] = target: HLA class I molecule B*3501 (Homo sapiens, UniProt P01889, A329T/A93T/A95T/C349S/D201E/D98Y/E176V/E187L/E204Q/E69T/I218V/K202T/L119I/Q94N/R155S/R180L/S121R/S35A/S48A/T118I/V127L/V306I/V36M/Y140S/Y91F); assay: REVEAL HLA-peptide binding assay, B*3501; conditions: assembly of peptide-HLA complex by ELISA with conformation-dependent anti-HLA antibody, relative to positive control peptide for that allele, comparable within an allele only
Procedure: (§1) The REVEAL HLA-peptide binding assay (ProImmune Ltd., Oxford, UK) was used to quantify peptide-HLA binding. For each allele-peptide combination that was tested, assembly of peptide-HLA complexes was quantified by ELISA with a conformation-dependent anti-HLA antibody. Samples of assembling peptide-HLA complexes were taken at a defined time point and snap-frozen in liquid nitrogen prior to analysis. The assembly for each peptide-HLA complex was then compared against a positive control peptide for that allele as the percentage of assembled peptide relative to that control. We selected four HLA class I alleles and 50 HTLV-1 peptides for each allele. The allele choice was based on allele frequency in the Kagoshima database and included 2 A alleles and 2 B alleles as well as alleles for which we knew that the epitope prediction tended to be poor. The 50 HTLV-1 nonamer peptides for each allele were selected to represent a range of predicted binding affinities, from weak to strong binding peptides. They originated from 4 HTLV-1 reference strain proteins: Tax, HBZ, Gag and Polymerase.
(§2) Note the binding score is with respect to a reference good binding peptide for each allele and therefore scores can be compared within an allele but not between alleles.

[2] = target: T1, HLA class I molecule A*0201 (Homo sapiens, UniProt P04439, D140Y/D185E/D98H/E176V/E277Q/G131W/G231S/I119V/I121R/I166T/I218V/L300P/L318F/N151K/N90K/P208A/P217A/Q86G/Q94H/R138H/R169H/T345S); type: binding; conditions: REVEAL assay, assembly of peptide-HLA complex by ELISA with conformation-dependent anti-HLA antibody, relative to positive control peptide for that allele, comparable within an allele only
T1 construct: purchased ProImmune Ltd., Oxford, UK

[3] = target: T2, HLA class I molecule A*2402 (Homo sapiens, UniProt P04439, D101N/D140Y/D185E/E176V/E190D/F33S/G103R/G107R/I119L/I121M/I306V/K335N/L105A/L180Q/L300P/N151K/N90K/Q86E/Q94H/R106L/R138H/R89G/T104I/T345S/V100E/W191G/Y123F); type: binding; conditions: REVEAL assay, assembly of peptide-HLA complex by ELISA with conformation-dependent anti-HLA antibody, relative to positive control peptide for that allele, comparable within an allele only
T2 construct: purchased ProImmune Ltd., Oxford, UK

[4] = target: T3, HLA class I molecule B*0702 (Homo sapiens, UniProt P01889); assay: REVEAL HLA-peptide binding assay, B*0702; set-up: concentration or dose not given beside the values; conditions: assembly of peptide-HLA complex by ELISA with conformation-dependent anti-HLA antibody, relative to positive control peptide for that allele, comparable within an allele only
T3 construct: purchased ProImmune Ltd., Oxford, UK
Procedure: as §1, §2

[5] = tested on: autologous B-LCL loaded with HBZ26–34 peptide; assay: Chromium release assay, peptide-loaded B-LCL; type: cell-based, human; conditions: 1 µM HBZ 26–34 peptide, 4 h, ^51Cr release; data not shown
Procedure: PBMC from HLA A*0201^+ and HLA A*0201^− HTLV-1 infected individuals were depleted of CD8^+ cells, then enriched for CD25^+ cells using MACS beads (Miltenyi Biotech, Germany), according to manufacturer's instructions. CD25^+ cells were cultured for 16h to allow for viral antigen expression and presentation, then labelled with ^51Cr by incubating for 1h in the presence of 50–100 µCi Na2CrO4 (MP Biomedicals, USA). Labelled cells were washed extensively and placed in culture in triplicate (40,000 cells/well) in the presence of defined ratios of HBZ-1, a CTL clone which recognises HBZ 26–34 in the context of HLA A*0201 [37], alone or in the presence of 5% Triton x-100 (Sigma Aldrich). As a control, ^51Cr labelled B-LCL (autologous to the CTL clone) were cultured at the same ratios, with and without 1 µM HBZ 26–34 peptide. […] Total specific lysis was calculated using the following formula: [chromium release (test well)−chromium release (no CTL control)]/ [chromium release (Triton−100% lysis)−chromium release (no CTL control)]*100, expressed as a percentage specific lysis of total cells. […] Percentage infected cells lysed was calculated using the following formula: [Percentage total cells lysed]/[fraction of CD4^+CD25^+ cells that are infected i.e. provirus positive].

| Sequence | Score (experimentally measured binding affinity, % binding compared to control peptide) [1] [%] | Score (experimentally measured binding affinity, % binding compared to control peptide) [2] [%] | Score (experimentally measured binding affinity, % binding compared to control peptide) [3] [%] | Score (experimentally measured binding affinity, % binding compared to control peptide) [4] [%] | Lysis of peptide-loaded autologous B-LCL by the HBZ-specific CD8^+ T cell clone [5] |
| --- | --- | --- | --- | --- | --- |
| ASGLFRCLP [HTLV-1 nonamer peptide] | 0 | 2.99 | 4.14 | 2 | – |
| AVLDGLLSL [HTLV-1 nonamer peptide] | 0 | 92.9 | 1.41 | 18.76 | – |
| GFGQSLLFG [HTLV-1 nonamer peptide] | 0 | 0.29 | 1.06 | 0 | – |
| GLLSLEEEL [HTLV-1 nonamer peptide, HBZ26–34, recognised in the context of HLA-A*0201] | – | 63.68 | – | – | could be lysed by the CD8^+ T cell clone |
| IQYSSFHSL [HTLV-1 nonamer peptide] | – | 93.93 | 87.52 | 2.94 | – |
| KALMPVFTL [HTLV-1 nonamer peptide] | 11.5 | 79.88 | 8.05 | 40.22 | – |
| LAAHHWLNF [HTLV-1 nonamer peptide] | 75.12 | – | 35.91 | 4.59 | – |
| QAMRKYSPF [HTLV-1 nonamer peptide] | 69.18 | – | 56.78 | 140.22 | – |
| RICPINYSL [HTLV-1 nonamer peptide] | – | 71.46 | 77.87 | 110.59 | – |
| RVIGSALQF [HTLV-1 nonamer peptide] | 42.94 | – | 65.17 | 87.63 | – |
| SAQWIPWRL [HTLV-1 nonamer peptide] | 14.94 | 24.03 | 27.07 | 0 | – |
| SLVQLRQAL [HTLV-1 nonamer peptide] | 0 | 6.84 | – | 119.22 | – |
| TFLKTAAPL [HTLV-1 nonamer peptide] | – | – | 86.12 | 28.15 | – |
